Results from the supplement of paper PMC10307832.

What was measured:
Assay in all cases: relative viability (nuclei count vs DMSO), 5 days (fraction); higher = more cells survive
Olaparib + Decitabine = compound: O=C(c1cc(Cc2n[nH]c(=O)c3ccccc23)ccc1F)N1CCN(C(=O)C2CC2)CC1 [Olaparib] + Nc1ncn([C@H]2C[C@H](O)[C@@H](CO)O2)c(=O)n1 [Decitabine] (partner 2 µM)
In short: (§1)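 Medians of duplicate plates are given as relative viability. That measure is the nuclei count in treated wells divided by the count in vehicle wells. Counts were taken on 4× images of lung cancer cell lines in 1536-well plates, 5 days after pin-tool dosing the day after seeding with one drug alone or a fixed anchor-drug dose plus five library-drug doses (not always all listed) in √10 steps.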

Carfilzomib + OSI-027 = compound: CC(C)C[C@H](NC(=O)[C@H](CCc1ccccc1)NC(=O)CN1CCOCC1)C(=O)N[C@@H](Cc1ccccc1)C(=O)N[C@@H](CC(C)C)C(=O)[C@@]1(C)CO1 [Carfilzomib] + COc1cccc2cc(-c3nc([C@H]4CC[C@H](C(=O)O)CC4)n4ncnc(N)c34)[nH]c12 [OSI-027] (partner 0.5 µM)
In short: as §1

Olaparib + Alpelisib = compound: O=C(c1cc(Cc2n[nH]c(=O)c3ccccc23)ccc1F)N1CCN(C(=O)C2CC2)CC1 [Olaparib] + Cc1nc(NC(=O)N2CCC[C@H]2C(N)=O)sc1-c1ccnc(C(C)(C)C(F)(F)F)c1 [Alpelisib] (partner 2 µM)
In short: as §1

Crizotinib + Foretinib = compound: C[C@@H](Oc1cc(-c2cnn(C3CCNCC3)c2)cnc1N)c1c(Cl)ccc(F)c1Cl [Crizotinib] + COc1cc2c(Oc3ccc(NC(=O)C4(C(=O)Nc5ccc(F)cc5)CC4)cc3F)ccnc2cc1OCCCN1CCOCC1 [Foretinib] (partner 0.25 µM)
In short: as §1

Cell Line | relative viability (Olaparib + Decitabine; first compound 0.08 µM) | relative viability (Olaparib + Decitabine; first compound 0.253 µM) | relative viability (Olaparib + Decitabine; first compound 2.53 µM) | relative viability (Olaparib + Decitabine; first compound 8 µM) | relative viability (Carfilzomib + OSI-027; first compound 0.001 µM) | relative viability (Carfilzomib + OSI-027; first compound 0.003162 µM) | relative viability (Carfilzomib + OSI-027; first compound 0.01 µM) | relative viability (Carfilzomib + OSI-027; first compound 0.03162 µM) | relative viability (Carfilzomib + OSI-027; first compound 0.1 µM) | relative viability (Olaparib + Alpelisib; first compound 0.08 µM) | relative viability (Olaparib + Alpelisib; first compound 0.253 µM) | relative viability (Olaparib + Alpelisib; first compound 2.53 µM) | relative viability (Olaparib + Alpelisib; first compound 8 µM) | relative viability (Crizotinib + Foretinib; first compound 0.01 µM) | relative viability (Crizotinib + Foretinib; first compound 0.03162 µM) | relative viability (Crizotinib + Foretinib; first compound 0.1 µM) | relative viability (Crizotinib + Foretinib; first compound 0.3162 µM) | relative viability (Crizotinib + Foretinib; first compound 1 µM)
NCI-H3122 | 0.385 | 0.351 | 0.259 | 0.256 | 1.01 | 1.05 | 1.07 | 0.872 | 0.154 | 0.7 | 0.638 | 0.867 | 0.668 | 0.94 | 0.925 | 0.978 | 0.873 | 0.924
PC-3 [JPC-3] | 0.82 | – | 0.761 | 0.741 | 0.801 | 0.775 | 0.813 | 0.755 | 0.352 | 1.01 | 1.01 | 1.01 | 0.989 | 0.969 | 1.05 | 1.01 | 0.992 | 0.986
PC-14 | 0.153 | 0.124 | 0.101 | 0.105 | 0.904 | 0.962 | 0.603 | 0.0409 | 0.0529 | 0.988 | 0.859 | 0.931 | 0.792 | 0.894 | 1.01 | – | 0.926 | 0.999
RERF-LC-KJ | 0.703 | 0.637 | 0.558 | 0.451 | 0.551 | 0.525 | 0.72 | 0.322 | 0.221 | 0.826 | 0.806 | 0.845 | 0.883 | 0.824 | 0.896 | 1.33 | 0.817 | 0.887
SK-LU-1 | 0.476 | 0.484 | 0.504 | 0.452 | 0.36 | 0.362 | 0.399 | 0.102 | 0.138 | 1.14 | 0.859 | 0.837 | 0.554 | 0.822 | 0.778 | 0.787 | 0.902 | 0.848
SK-MES-1 | 0.305 | 0.299 | 0.303 | 0.262 | 0.637 | 0.632 | 0.652 | 0.336 | 0.145 | 0.925 | 0.764 | 1.02 | 0.697 | 0.875 | 0.919 | 0.941 | 0.798 | 0.843
SW 1573 | 0.32 | 0.301 | 0.16 | 0.139 | 0.717 | 0.771 | 0.403 | 0.0525 | 0.0647 | 0.715 | 0.667 | 0.627 | 0.471 | 0.85 | 0.762 | 0.905 | 0.77 | 0.98
UMC-11 | 0.497 | – | 0.405 | 0.4 | 0.503 | 0.474 | 0.496 | 0.426 | 0.211 | 1.08 | 0.877 | 0.825 | 0.409 | 1.01 | 1.04 | 1.07 | 1.04 | 1.02
